The text below walks through data of patent publication US11427563B2, “Aryl cyclopropyl-amino-isoquinolinyl amide compounds” (Aerie Pharmaceuticals, Inc., priority 2018, dated 2022).

As usually defined, the IC50 is the point on the concentration scale where inhibition reaches its midpoint. As a reminder, the Ki is the dissociation constant of the complex between target and ligand, obtained from inhibition or displacement.

Molecules are shown by their SMILES. Bounds are passed on as bounds.

Experiment [1] has as its target ROCK2 enzyme (Homo sapiens (Human), UniProt O75116). The experiment in a line: ROCK kinase inhibition assay (ROCK2). The experiment is classed as biochemical. To be noted: for IC50: Table 1.
The target of experiment [2] is JAK3 enzyme (Homo sapiens (Human), UniProt P52333). The experiment in a line: JAK kinase assay (JAK3). To be noted: for IC50: Table 1. The experiment is classed as biochemical.
Sequence of JAK3 enzyme (P52333 whole entry, species assumed): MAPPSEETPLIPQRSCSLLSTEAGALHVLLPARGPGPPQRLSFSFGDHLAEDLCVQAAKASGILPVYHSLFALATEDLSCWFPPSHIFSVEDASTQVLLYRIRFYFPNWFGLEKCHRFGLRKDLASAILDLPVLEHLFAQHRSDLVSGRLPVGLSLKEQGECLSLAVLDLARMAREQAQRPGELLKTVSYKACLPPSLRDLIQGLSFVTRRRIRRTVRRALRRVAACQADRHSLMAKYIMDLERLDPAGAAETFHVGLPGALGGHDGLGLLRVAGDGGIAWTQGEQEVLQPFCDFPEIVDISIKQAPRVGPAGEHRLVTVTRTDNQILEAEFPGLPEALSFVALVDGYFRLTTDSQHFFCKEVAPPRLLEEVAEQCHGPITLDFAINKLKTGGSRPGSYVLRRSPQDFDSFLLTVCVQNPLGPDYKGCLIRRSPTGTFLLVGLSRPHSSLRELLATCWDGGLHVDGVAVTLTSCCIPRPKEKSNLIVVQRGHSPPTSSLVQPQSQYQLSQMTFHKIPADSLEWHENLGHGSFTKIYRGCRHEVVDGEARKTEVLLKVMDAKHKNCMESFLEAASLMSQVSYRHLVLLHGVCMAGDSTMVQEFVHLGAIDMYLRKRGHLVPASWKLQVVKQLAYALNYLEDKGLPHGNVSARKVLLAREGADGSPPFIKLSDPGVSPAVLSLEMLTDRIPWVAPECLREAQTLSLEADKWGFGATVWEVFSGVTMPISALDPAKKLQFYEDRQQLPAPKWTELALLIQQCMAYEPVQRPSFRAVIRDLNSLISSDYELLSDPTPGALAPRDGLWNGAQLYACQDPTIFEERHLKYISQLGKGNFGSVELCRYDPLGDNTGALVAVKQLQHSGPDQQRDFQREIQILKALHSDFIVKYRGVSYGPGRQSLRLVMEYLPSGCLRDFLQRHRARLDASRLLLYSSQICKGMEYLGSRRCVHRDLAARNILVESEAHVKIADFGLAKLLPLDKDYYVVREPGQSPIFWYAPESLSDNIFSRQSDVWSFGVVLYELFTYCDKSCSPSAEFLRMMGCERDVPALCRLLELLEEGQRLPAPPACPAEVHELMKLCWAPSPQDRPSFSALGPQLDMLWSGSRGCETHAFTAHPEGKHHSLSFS
The target of experiment [3] is ROCK1 enzyme (Homo sapiens (Human), UniProt Q13464). The experiment in a line: ROCK kinase inhibition assay (ROCK1). The experiment is classed as biochemical. To be noted: Table 1.
Sequence of ROCK1 enzyme (Q13464 whole entry, species assumed): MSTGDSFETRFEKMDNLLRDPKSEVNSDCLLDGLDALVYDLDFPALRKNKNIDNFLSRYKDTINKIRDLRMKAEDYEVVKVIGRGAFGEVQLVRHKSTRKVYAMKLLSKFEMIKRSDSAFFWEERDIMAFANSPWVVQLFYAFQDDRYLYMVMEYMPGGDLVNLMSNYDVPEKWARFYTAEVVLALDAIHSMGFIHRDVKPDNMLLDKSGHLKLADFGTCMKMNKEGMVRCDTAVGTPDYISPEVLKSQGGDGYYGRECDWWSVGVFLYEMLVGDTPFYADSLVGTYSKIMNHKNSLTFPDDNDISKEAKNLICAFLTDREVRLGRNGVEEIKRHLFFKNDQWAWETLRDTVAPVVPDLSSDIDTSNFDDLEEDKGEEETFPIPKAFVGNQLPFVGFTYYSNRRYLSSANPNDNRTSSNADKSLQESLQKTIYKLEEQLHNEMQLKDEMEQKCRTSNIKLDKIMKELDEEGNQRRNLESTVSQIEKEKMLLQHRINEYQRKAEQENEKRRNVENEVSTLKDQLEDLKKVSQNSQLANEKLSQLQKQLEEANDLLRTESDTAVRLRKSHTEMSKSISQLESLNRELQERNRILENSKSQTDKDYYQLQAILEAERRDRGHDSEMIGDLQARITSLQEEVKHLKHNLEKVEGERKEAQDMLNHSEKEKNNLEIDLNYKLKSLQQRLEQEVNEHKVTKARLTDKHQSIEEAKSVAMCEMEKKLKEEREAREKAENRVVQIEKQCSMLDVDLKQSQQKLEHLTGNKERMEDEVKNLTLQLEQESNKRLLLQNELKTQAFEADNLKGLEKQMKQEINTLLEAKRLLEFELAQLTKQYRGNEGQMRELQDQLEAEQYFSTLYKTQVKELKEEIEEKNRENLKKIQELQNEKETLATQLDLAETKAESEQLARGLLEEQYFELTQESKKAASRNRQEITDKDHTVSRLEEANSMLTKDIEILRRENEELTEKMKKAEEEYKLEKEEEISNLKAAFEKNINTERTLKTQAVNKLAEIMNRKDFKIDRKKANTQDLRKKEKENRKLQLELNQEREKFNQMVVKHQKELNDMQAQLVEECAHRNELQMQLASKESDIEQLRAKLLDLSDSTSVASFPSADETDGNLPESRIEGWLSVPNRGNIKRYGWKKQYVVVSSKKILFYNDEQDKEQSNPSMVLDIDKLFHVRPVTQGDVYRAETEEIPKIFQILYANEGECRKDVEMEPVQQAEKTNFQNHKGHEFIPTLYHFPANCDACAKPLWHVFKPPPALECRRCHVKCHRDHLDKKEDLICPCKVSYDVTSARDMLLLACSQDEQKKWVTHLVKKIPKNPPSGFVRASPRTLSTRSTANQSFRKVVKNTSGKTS
Experiment [4] deals with IKKβ (Homo sapiens (Human), UniProt O14920). The experiment in a line: IKKβ inhibition. The experiment is classed as biochemical. Particulars: for IC50: Table 1.
Sequence of IKKβ (O14920 whole entry, species assumed): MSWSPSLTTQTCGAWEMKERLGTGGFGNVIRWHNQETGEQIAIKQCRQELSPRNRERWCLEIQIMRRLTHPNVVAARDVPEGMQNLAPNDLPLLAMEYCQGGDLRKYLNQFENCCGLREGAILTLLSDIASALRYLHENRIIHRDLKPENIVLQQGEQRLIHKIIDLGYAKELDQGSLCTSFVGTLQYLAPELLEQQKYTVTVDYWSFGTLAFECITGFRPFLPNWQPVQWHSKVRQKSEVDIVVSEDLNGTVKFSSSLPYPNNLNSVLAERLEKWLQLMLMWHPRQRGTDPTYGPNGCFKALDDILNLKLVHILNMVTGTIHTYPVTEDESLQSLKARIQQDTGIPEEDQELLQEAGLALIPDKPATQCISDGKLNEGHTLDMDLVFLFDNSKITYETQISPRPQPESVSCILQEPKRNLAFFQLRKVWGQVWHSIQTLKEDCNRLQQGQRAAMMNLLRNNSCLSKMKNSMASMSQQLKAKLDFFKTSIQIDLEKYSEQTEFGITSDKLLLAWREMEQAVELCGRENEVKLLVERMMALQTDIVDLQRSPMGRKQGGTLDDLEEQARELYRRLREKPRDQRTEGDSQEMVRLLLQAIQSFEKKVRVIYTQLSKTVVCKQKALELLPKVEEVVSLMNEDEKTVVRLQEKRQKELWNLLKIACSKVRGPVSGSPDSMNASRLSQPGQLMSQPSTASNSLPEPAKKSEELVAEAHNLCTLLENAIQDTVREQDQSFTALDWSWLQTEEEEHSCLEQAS
In experiment [5] the target is TYK2 (Homo sapiens (Human), UniProt P29597). The experiment in a line: TYK2 inhibition. The format is biochemical. Particulars: Table 1.
Sequence of TYK2 (P29597 whole entry, species assumed): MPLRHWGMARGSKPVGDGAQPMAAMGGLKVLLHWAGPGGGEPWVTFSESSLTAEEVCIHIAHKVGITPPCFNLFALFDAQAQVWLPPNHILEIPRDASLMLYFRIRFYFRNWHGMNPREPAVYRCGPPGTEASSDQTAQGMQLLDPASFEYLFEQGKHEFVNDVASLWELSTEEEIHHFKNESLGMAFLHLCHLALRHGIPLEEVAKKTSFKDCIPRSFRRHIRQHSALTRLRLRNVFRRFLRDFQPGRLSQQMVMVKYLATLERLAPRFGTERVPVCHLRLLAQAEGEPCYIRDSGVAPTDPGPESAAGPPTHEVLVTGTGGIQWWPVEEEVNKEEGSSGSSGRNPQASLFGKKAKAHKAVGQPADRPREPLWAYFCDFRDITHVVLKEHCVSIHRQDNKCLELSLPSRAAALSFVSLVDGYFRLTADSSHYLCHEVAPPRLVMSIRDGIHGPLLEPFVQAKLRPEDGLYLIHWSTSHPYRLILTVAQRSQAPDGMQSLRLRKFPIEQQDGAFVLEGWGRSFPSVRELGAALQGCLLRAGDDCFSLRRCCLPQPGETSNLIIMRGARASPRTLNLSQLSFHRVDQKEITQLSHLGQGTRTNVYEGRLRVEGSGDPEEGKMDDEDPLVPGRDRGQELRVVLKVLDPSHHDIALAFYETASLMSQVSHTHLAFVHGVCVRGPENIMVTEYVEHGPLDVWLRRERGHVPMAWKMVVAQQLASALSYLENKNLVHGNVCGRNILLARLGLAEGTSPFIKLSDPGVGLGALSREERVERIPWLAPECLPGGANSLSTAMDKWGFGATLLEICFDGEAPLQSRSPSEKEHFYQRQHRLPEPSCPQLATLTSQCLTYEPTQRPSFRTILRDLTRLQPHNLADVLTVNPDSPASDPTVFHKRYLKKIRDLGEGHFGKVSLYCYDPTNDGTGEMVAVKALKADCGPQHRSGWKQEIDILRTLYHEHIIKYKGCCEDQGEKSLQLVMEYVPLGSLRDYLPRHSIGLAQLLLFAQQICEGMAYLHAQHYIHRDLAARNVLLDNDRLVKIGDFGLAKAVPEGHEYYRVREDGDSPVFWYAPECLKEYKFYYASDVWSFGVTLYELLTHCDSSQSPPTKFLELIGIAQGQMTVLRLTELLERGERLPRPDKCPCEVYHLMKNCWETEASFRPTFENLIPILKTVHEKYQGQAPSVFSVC
Experiment [6] relates to Stat5. The experiment in a line: Stat5 assay. To be noted: Table 1. The experiment is classed as cell-based.
The test system of experiment [7] is Porcine Trabecular Meshwork cells (PTM). The experiment in a line: PTM-HTM assay (actin fiber length in PTM cells). The experiment is classed as cell-based. To be noted: Sus scrofa; Table 2. The method, then:
Porcine Trabecular Meshwork cells (PTM) were isolated from freshly obtained enucleated porcine eyes. Immortalized Human Trabecular Meshwork cells (TM-1) were obtained through a kind gift from Donna Peters in the Department of Ophthalmology and Visual Sciences at the University of Wisconsin. Cells were plated onto fibronectin coated glass-bottom 96-well plates and allowed to attach overnight. Media was removed and replaced with test compound in media with 1% fetal bovine serum and incubated for various times. After incubation, cells were formaldehyde fixed, triton solubilized, and stained. PTM cells were stained with Alexa Fluor®488 phalloidin (F-actin) and Hoechst 33342 (nuclei). TM-1 cells were stained with anti-paxillin followed by Alexa Fluor®488 goat-anti-mouse IgG (focal adhesions) and Hoechst 33342 (nuclei). All staining reagents were obtained through Invitrogen. Images were collected on an INCell 2200 imager with a 20× objective. The actin fiber length and total area of focal adhesions were analyzed using custom algorithms developed in the INCell Developer Toolbox, v1.9.3. Data collected were converted to percent of control (untreated cells). Curves were fit to data in GraphPad Prizm using sigmoidal dose-response and constraining top and bottom to 100% and 0%, respectively.

The mark [8] stands for this setting: Table 2, Ki from IC50 by Cheng-Prusoff.

As to `Cc1cncc2ccc(NC(=O)[C@@H]3C[C@H]3c3ccc(S(=O)(=O)Nc4ncc(C5CCNCC5)cn4)cc3)cc12` [Compound 1], the IC50 in experiment [1] came to 4.9 nM; in experiment [2], 148 nM; in experiment [3] it was 16 nM; in experiment [4] it was 1130 nM.
On the same counts, the results for `O=C(Nc1ccc2cncc(C(F)(F)F)c2c1)[C@@H]1CC1c1ccc(S(=O)(=O)Nc2ncccn2)cc1` (stereo partly shown) [Compound 9] are 1160 nM, 8.2 nM, 1570 nM and 14 nM.
For the molecule `Cc1cncc2ccc(NC(=O)[C@@H]3C[C@H]3c3ccc(S(=O)(=O)Nc4cncc(C5=CCNCC5)n4)cc3)cc12` [Compound 11], the IC50 is 15 nM in experiment [1], 135 nM in experiment [2], 153 nM in experiment [3] and 765 nM in experiment [4].
For `O=C(Nc1ccc2cnccc2c1)[C@@H]1CC1c1cc(F)ccc1S(=O)(=O)Nc1ccccn1` (stereo partly shown) [Compound 19], the IC50 in experiment [2] came to 6750 nM; in experiment [3], 7400 nM.
As to `CCc1cncc2ccc(NC(=O)[C@@H]3CC3c3ccc(S(=O)(=O)Nc4ccccn4)cc3)cc12` (stereo partly shown) [Compound 17], the figures for the IC50 in experiment [1], in experiment [2] and in experiment [3] were 45 nM, 4.2 nM and 44 nM, respectively.
For the molecule `Cc1cncc2ccc(NC(=O)[C@@H]3CC3c3ccc(S(=O)(=O)Nc4cccnc4)cc3)cc12` (stereo partly shown) [Compound 27], half-maximal inhibition in experiment [4] (IC50) was put at 159 nM.
For the molecule `Cc1cncc2ccc(NC(=O)[C@@H]3C[C@H]3c3ccc(S(=O)(=O)Nc4cccnc4)cc3)cc12` [Compound 27], the figures for the IC50 in experiment [5], in experiment [1] and in experiment [2] were 98 nM, 44 nM and 19 nM, respectively.
Regarding `Cc1cncc2ccc(NC(=O)[C@@H]3CC3c3ccc(S(=O)(=O)Nc4cnccn4)cc3)cc12` (stereo partly shown) [Compound 10], the IC50 in experiment [1] is 74 nM; in experiment [2], 14 nM; in experiment [3], 220 nM; in experiment [6], more than 1000 nM; in experiment [4], 105 nM.
On to `Cc1cncc2ccc(NC(=O)[C@@H]3C[C@H]3c3ccc(S(=O)(=O)NC4CCNC4)cc3)cc12` (stereo partly shown) [Compound 12], for which the IC50 in experiment [1] amounted to 21 nM; in experiment [2], 175 nM; in experiment [3], 21 nM; in experiment [4] it was 759 nM.
`Cc1cncc2ccc(NC(=O)[C@@H]3C[C@H]3c3ccc(S(=O)(=O)Nc4nccs4)cc3)cc12` [Compound 32]: the IC50 stood at 12.3 nM in experiment [1], 3.4 nM in experiment [2], 20 nM in experiment [3] and 5 nM in experiment [4].
`O=C(Nc1cccnn1)c1ccc(C2C[C@H]2C(=O)Nc2ccc3cnccc3c2)cc1` (stereo partly shown) [Compound 175] registered an IC50 in experiment [7] of 650 nM. That is a sub-micromolar value.
Turning to `O=C(Nc1ccc2cncc(Cl)c2c1)[C@@H]1CC1c1ccc(S(=O)(=O)Nc2ccc(F)cn2)cc1` (mixture of isomers) [Compound 16b], the IC50 was 12 nM in experiment [5]; 25 nM in experiment [1]; 2.9 nM in experiment [2]; 74 nM in experiment [3]; 70 nM in experiment [4].
Take `O=C(Nc1ccc2cncc(Cl)c2c1)[C@@H]1CC1c1ccc(S(=O)(=O)Nc2ccc(F)cn2)cc1` (mixture of isomers) [Compound 16a]: the IC50 in experiment [5] was 7 nM; in experiment [1], 56 nM; in experiment [2], 4.8 nM; in experiment [3], 156 nM; in experiment [4], 88 nM.
Consider `CN(C)Cc1ccc(NC(=O)c2cccc([C@@H]3C[C@H]3C(=O)Nc3ccc4cncc(Cl)c4c3)c2)nc1` [Compound 36], for which the Ki in experiment [1] (setting [8]) was determined as 1 nM; in experiment [2] (setting [8]), 211 nM; in experiment [4] (Table 2), 1190 nM. Also, in experiment [7], the IC50 worked out at 12 nM.
Regarding `O=C(Nc1ccc2cncc(Cl)c2c1)[C@@H]1CC1c1ccc(S(=O)(=O)Nc2cccnc2)cc1` (stereo partly shown) [Compound 28], the IC50 turned out to be 210 nM in experiment [5]; 67 nM in experiment [1]; 18 nM in experiment [2]; 160 nM in experiment [3]; 57 nM in experiment [6]; 381 nM in experiment [4].
As for `O=C(Nc1ccc2cncc(Cl)c2c1)[C@@H]1C[C@H]1c1ccc(S(=O)(=O)Nc2ncccn2)cc1` [Compound 6], the results for the IC50 in experiment [1], in experiment [3] and in experiment [4] were 68 nM, 128 nM and 4.1 nM, respectively.
As to `O=C(Nc1ccc2cnccc2c1)[C@@H]1CC1c1ccc(S(=O)(=O)Nc2ccccn2)c(F)c1` (stereo partly shown) [Compound 18], the IC50 is 4 nM in experiment [1], 19.5 nM in experiment [2], 6.4 nM in experiment [3] and 17.5 nM in experiment [4].
Regarding `O=C(Nc1ccc2cncc(Cl)c2c1)[C@@H]1C[C@H]1c1ccc(S(=O)(=O)Nc2ccc(F)cn2)cc1` [Compound 15], the IC50 in experiment [1] was 56 nM; in experiment [2], 4.8 nM; in experiment [3], 156 nM; in experiment [4] it was 88 nM.
On the same counts, the results for `Cc1cncc2ccc(NC(=O)[C@@H]3CC3c3ccc(S(=O)(=O)Nc4ncc(F)cn4)cc3)cc12` (stereo partly shown) [Compound 8] are 93 nM, 3.9 nM, 121 nM and 7.3 nM.
On the same counts, the results for `CCc1cncc2ccc(NC(=O)[C@@H]3C[C@H]3c3ccc(S(=O)(=O)Nc4ncccn4)cc3)cc12` [Compound 7] are 880 nM, 5.8 nM, 1090 nM and 3.6 nM.
On to `Cc1cncc2ccc(NC(=O)[C@@H]3C[C@H]3c3ccc(S(=O)(=O)NC4CCCNC4)cc3)cc12` (stereo partly shown) [Compound 13], for which the IC50 was 15 nM in experiment [1], 179 nM in experiment [2], 18 nM in experiment [3] and 825 nM in experiment [4].
With `N#Cc1cncc2ccc(NC(=O)[C@@H]3CC3c3ccc(S(=O)(=O)Nc4ccccn4)cc3)cc12` (stereo partly shown) [Compound 20], the IC50 in experiment [1] was 20 nM; in experiment [2], 2.4 nM; in experiment [3], 30 nM; in experiment [4], 6.9 nM.
On the same counts, the results for `O=C(Nc1ccc2cncc(C(F)(F)F)c2c1)[C@@H]1C[C@H]1c1ccc(S(=O)(=O)Nc2ccccn2)cc1` [Compound 14] are 108 nM, 9 nM, 122 nM and 16 nM.
As to `Cc1cncc2ccc(NC(=O)[C@@H]3C[C@H]3c3ccc(S(=O)(=O)Nc4cnccn4)cc3)cc12` [Compound 10], 34 nM corresponded to half-maximal inhibition in experiment [5] (IC50).
`O=C(Nc1ccc2cnccc2c1F)[C@@H]1C[C@H]1c1ccc(S(=O)(=O)Nc2cccnc2)cc1` [Compound 29]: the IC50 in experiment [1] was 13.8 nM; in experiment [2] it was 350 nM; in experiment [3], 43 nM; in experiment [4], more than 5000 nM.
